According to patent publication EP2886531B1, “Aspartic acid derivatives” (Merck Patent GmbH, priority 2013, dated 2015):

How the values were obtained:
[1] = Prolonged piperidine treatment at 60°C of VKDRYI peptide resin (aspartimide formation); assay type: physicochemical
Description: (§1) Automated peptide synthesis, piperidine treatments of the resin samples and final TFA cleavages are performed as described in the protocols of example 4. In addition, to evaluate the advantage of the protecting groups used in this invention in heat accelerated SPPS we treat 50 mg peptide resin samples with a solution of 20% piperidine in DMF at 60°C over 200 minutes. Microwave assisted peptide synthesis conditions are often used to shorten peptide synthesis times and increase coupling reaction and Fmoc deprotection.
The application of microwave heating to SPPS is accelerating coupling and deprotection reactions leading to shorter cycle times, higher repetitive yields, and ultimately purer peptides. On the other hand, microwave energy can also lead to increased levels of aspartimide by-products. To overcome that drawback we evaluated the advantage of the side-chain protections used in this invention by exposing the peptide resins to Fmoc removal cycles at 60 degrees Celsius.
In table 5 the amounts of by-products formed after the prolonged exposure of the peptide resins to piperidine at 60 degree Celsius (100 Fmoc removal cycles) are summarized for all side-chain protections used in this invention. […] Table 5: Results after 100 Fmoc removal cycles using piperidine at 60°C, target peptide sequence = VKDRYI, the aspartimide (Asu) derived by-products are the aspartimide itself and the sum of piperidides

[2] = Prolonged piperidine treatment of VKDRYI peptide resin (aspartimide formation, Asp-Arg motif); assay type: physicochemical
Description: as §1
(§2) In table 4 the amounts of by-products formed after the prolonged exposure of the peptide resins to piperidine (110 Fmoc removal cycles) are summarized for all side-chain protections used in this invention. Table 4: Results after 110 Fmoc removal cycles using piperidine, target peptide sequence = VKDRYI, the aspartimide (Asu) derived by-products are the aspartimide itself and the sum of piperidides

[3] = Prolonged piperidine treatment of VKDGYI peptide resin (aspartimide formation, Asp-Gly motif)
[4] = Prolonged piperidine treatment of VKDNYI peptide resin (aspartimide formation, Asp-Asn motif); assay type: physicochemical; conditions: piperidine
Description: (§3) Automated peptide synthesis, piperidine treatments of the resin samples and final TFA cleavages are performed as described in the protocols of example 4. In addition, 50 mg peptide resin samples are treated with a solution of DBU/piperidine/DMF (1:19:79) over 225 minutes to investigate the aspartimide formation at harsher Fmoc deprotection conditions often used for complete Fmoc removals in aggregation prone sequences.
(§4) The resulting peptide samples are analysied and all relevant impurities identified by UPLC-MS analysis (Xevo Waters Q-TOF-1, lock mass = 556.277 (leu-enkephaline), LC-conditions: CHS 18 1,7 µm (100x2.1 mm) at 40°C; water acetonitrile gradient of 5% to 35 % B over 10 min where buffer A is 0.1 % formic acid in water and buffer B is 0.1 % formic acid in acetonitrile, flow 0.6 ml/min).
as §2, with “table 2” for “table 4”, “invention. […]” for “invention.”, “Table 2:” for “Table 4:”, “peptide” for “peptide sequence”, “= VKDNYI,” for “= VKDRYI,”, “derived by products” for “derived by-products”

[5] = Prolonged treatment of VKDGYI peptide resin with 1 M Oxyma Pure and 20 % piperidine (aspartimide formation); assay type: physicochemical; conditions: VKDGYI
Description: [drawing 14] 50 mg samples of the corresponding aspartic acid derivatives of example 4 are treated over 18 hours with a solution of 1 M Oxyma Pure and 20 % piperidine in dimethylformamide. The peptides are cleaved off the resin with 95 % TFA and analysed with HPLC as well as MS to identify all aspartimide related products (conditions see example 4). The results are summarized in table 6: Table 6: Results after 110 Fmoc removal cycles using an acidic modifier in the piperidine mediated Fmoc removal cocktails, target peptide = VKDG YI, the aspartimide derived by-products are the aspartimide itself and the sum of piperidides

[6] = Prolonged DBU treatment of VKDNYI peptide resin (aspartimide formation); assay type: physicochemical
Description: as §3, §4
In table 3 the amounts of by-products formed after prolonged DBU treatments are summarized for all side-chain protections used in this invention. […] Since the DBU mediated Fmoc removals are much quicker than the piperidine mediated, this experiment again represents a Fmoc SPPS assembly of an 100mer after introducing the aspartic acid residue using exclusively DBU for Fmoc cleavage. Table 3: Results after 110 Fmoc removal cycles using DBU, target peptide = VKDNYI, the aspartimide (Asu) derived by-products are the aspartimide itself and the sum of piperidides

[7] = VKDRYI, 20% piperidine in DMF at 60°C, 200 minutes
[8] = VKDRYI, 110 Fmoc removal cycles
[9] = VKDGYI, 20 % piperidine in dimethylformamide
[10] = VKDNYI, 110 Fmoc removal cycles
[11] = VKDNYI, DBU/piperidine/DMF (1:19:79), 225 minutes

D/L-Asu [%] [1, 7]: 16.9% | piperidides [%] [1, 7]: 19.6% | aspartimide by-products per cycle ([1]; VKDRYI, piperidine at 60 degrees Celsius): 0.5% | Asu per 10' cycle ([1]; VKDRYI, piperidine at 60°C): 0.5 | Half-life in cycles ([1]; VKDRYI, piperidine at 60°C): 153 cycles | target [%] ([1]; target peptide VKDRYI, 20% piperidine in DMF at 60°C over 200 minutes, 100 Fmoc removal cycles): 63.5% | Asu per 10' cycle ([2]; VKDRYI): 0.4 | Half-life in cycles ([2]; VKDRYI): 173 cycles | D/L-Asu [%] [2, 8]: 6.9% | piperidides [%] [2, 8]: 28.9% | times more aspartimide per Fmoc removal cycle ([2]; VKDRYI, in comparison to Bno): approximately seven | Half-life in cycles ([2]; VKDRYI, listed as Fmoc-Asp(OMpe)-OH): approx. 170 cycles | target [%] ([2]; target peptide VKDRYI, 110 Fmoc removal cycles): 64.2% | Asu per 10' cycle [%] [3, 9]: 0.8% | Half-life in 10' cycles [3, 9]: 90 10' cycles | Asu [%] ([3]; VKDGYI, 20 % piperidine in dimethylformamide, 18 hours, aspartimide): 6.7% | piperidides [%] ([3]; VKDGYI, 20 % piperidine in dimethylformamide, 18 hours, sum of piperidides): 51.0% | Asu [%] ([3]; VKDGYI, Oxyma Pure -): 6.7% | Asu per 10' cycle ([3]; VKDGYI, Oxyma Pure -): 0.8 | piperidides [%] ([3]; VKDGYI, Oxyma Pure -): 51.0% | target [%] ([3]; VKDGYI, Oxyma Pure -: 20 % piperidine only, 18 hours (as Table 1)): 42.3% | target [%] ([3]; target peptide VKDGYI, 20 % piperidine in dimethylformamide over 18 hours, 110 Fmoc removal cycles): 42.3% | Asu per 10' cycle ([4]; VKDNYI): 0.5 | Half-life in cycles ([4]; VKDNYI): 140 cycles | D/L-Asu [%] [4, 10]: 4.3% | piperidides [%] [4, 10]: 37.5% | times more aspartimide per Fmoc removal cycle ([4]; VKDNYI, in comparison to Bno): ten | target [%] ([4]; target peptide VKDNYI, 110 Fmoc removal cycles): 58.2% | Asu per 10' cycle ([5]; Oxyma Pure +): 0.16 | Asu [%] ([5]; Oxyma Pure +, 18 hours): 3.8% | piperidides [%] ([5]; Oxyma Pure +, 18 hours): 12.0% | target [%] ([5]; Oxyma Pure +: 1 M Oxyma Pure and 20 % piperidine in dimethylformamide, 18 hours): 84.2% | Asu per 2' cycle ([6]; VKDNYI, DBU): 1.5 | Half-life in cycles ([6]; VKDNYI, DBU, 2' cycles): 46 cycles | D/L-Asu [%] [6, 11]: 7.5% | piperides [%] [6, 11]: 73.7% | target [%] ([6]; target peptide VKDNYI, DBU/piperidine/DMF (1:19:79) over 225 minutes, 110 Fmoc removal cycles): 18.8%
Compound: CCC(C)(CC)OC(=O)C[C@H](NC(=O)OCC1c2ccccc2-c2ccccc21)C(=O)O [Mpe, Fmoc-Asp(OMpe)-OH, reference compound]
